Consider 20 compounds from patent publication EP4707277A1, “NOVEL HETEROCYCLIC AMINE DERIVATIVES AND PHARMACEUTICAL COMPOSITION COMPRISING SAME” (Daewoong Pharmaceutical Co., Ltd., priority 2023, dated 2024).

One assay has as its target T1, ITK (Homo sapiens, UniProt Q08881).
T1 construct: purchased Signalchem I13-11G-10
T1 sequence (Q08881 1-620): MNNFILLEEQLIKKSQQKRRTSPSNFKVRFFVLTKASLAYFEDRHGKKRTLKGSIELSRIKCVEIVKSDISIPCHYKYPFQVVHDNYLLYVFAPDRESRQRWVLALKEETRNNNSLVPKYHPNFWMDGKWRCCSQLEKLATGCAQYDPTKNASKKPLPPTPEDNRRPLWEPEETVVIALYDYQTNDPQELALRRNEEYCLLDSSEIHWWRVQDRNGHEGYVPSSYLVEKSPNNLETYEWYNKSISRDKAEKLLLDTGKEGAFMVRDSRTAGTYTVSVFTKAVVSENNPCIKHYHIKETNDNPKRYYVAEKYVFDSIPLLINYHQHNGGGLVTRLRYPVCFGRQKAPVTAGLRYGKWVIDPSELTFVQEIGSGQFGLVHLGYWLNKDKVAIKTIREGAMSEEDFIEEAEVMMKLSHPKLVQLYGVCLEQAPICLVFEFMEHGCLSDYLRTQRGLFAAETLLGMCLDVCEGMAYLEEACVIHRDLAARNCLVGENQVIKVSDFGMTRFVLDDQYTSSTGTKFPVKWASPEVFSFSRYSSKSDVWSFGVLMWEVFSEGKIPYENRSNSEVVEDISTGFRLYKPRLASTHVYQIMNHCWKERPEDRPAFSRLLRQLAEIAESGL
Kind of assay: Inhibitory activity against ITK, ADP-Glo Kinase system (Promega). The format is biochemical. The procedure: (§1) Inhibitory activities against BTK and ITK were measured for the compounds prepared in the above Examples as follows.
(§2) The inhibitory activities against BTK and ITK were evaluated using 'ADP-Glo™ Kinase system' (Promega Corporation). In the case of this evaluation method, activation was measured by quantifying the amount of ADP produced during the kinase reaction, which was utilized to measure the inhibitory activities against BTK and ITK.
(§3) Specifically, the inhibitory activities against BTK and ITK were measured using BTK kinase (Signalchem, B10-10H), ITK kinase (Signalchem, I13-11G-10), and ADP-Glo kinase assay kit (Promega, V9102). Recombinant purified human BTK and ITK were diluted with 1 x kinase reaction buffer (40 mM Tris-Cl, pH 7.5, 20 mM MgCl2, 0.1 mg/mL BSA, 2 mM MnCl2 and 50 uM DTT) and added to a 96 well plate (ITK: final concentration of 4 ng per reaction/BTK: final concentration of 10 ng per reaction). The compounds prepared in the previous Examples were treated so as to be finally a 1% DMSO aqueous solution, and a substrate cocktail containing ATP (1mM or Km ATP (BTK: 10 uM /ITK: 25uM)) and 0.2 ug/ul of Poly (Glu4,Tyr1) peptide (BTK and ITK final concentration) in the total 25 uL reactants was added to a 96-well plate to initiate enzymatic reaction. After incubation (30°C) for 1 hour, equivalent volume (25 uL per reaction) of ADP Glo was added, and incubated (30°C) for 40 minutes at room temperature. Then, a kinase detection reagent (45 uL per reaction) was added, and incubated (30°C) for 30 minutes at room temperature. The kinase activity was measured by chemiluminescence according to the instructions of ADP Glo kinase assay kit, and the inhibitory activity of the compounds according to the present disclosure was calculated. For the analysis of the results of each compound, Microsoft Excel was used, and IC50 values were calculated by GraphPad Prism software.
A general note: ADP-Glo turns the ADP formed in a reaction into a luminescent signal.

A further assay concerns the target T2, BTK (Homo sapiens, UniProt Q06187).
T2 construct: purchased Signalchem B10-10H
As to the kind of experiment: Inhibitory activity against BTK, ADP-Glo Kinase system (Promega). The format is biochemical. The protocol: as §1, §2, §3

Setting [1] is: 1mM ATP, read-out: ITK IC50(nM) 1mM ATP.
Where [2] appears, read: 1mM ATP, read-out: BTK IC50(nM) 1mM ATP.
Where [3] appears, read: Km ATP (ITK: 25uM), read-out: ITK IC50(nM) Km ATP.
Setting [4] is: Km ATP (BTK: 10 uM), read-out: BTK IC50(nM) Km ATP.

Like-named read-outs stand apart in the source and are kept apart here.

T2 sequence (Q06187 whole entry): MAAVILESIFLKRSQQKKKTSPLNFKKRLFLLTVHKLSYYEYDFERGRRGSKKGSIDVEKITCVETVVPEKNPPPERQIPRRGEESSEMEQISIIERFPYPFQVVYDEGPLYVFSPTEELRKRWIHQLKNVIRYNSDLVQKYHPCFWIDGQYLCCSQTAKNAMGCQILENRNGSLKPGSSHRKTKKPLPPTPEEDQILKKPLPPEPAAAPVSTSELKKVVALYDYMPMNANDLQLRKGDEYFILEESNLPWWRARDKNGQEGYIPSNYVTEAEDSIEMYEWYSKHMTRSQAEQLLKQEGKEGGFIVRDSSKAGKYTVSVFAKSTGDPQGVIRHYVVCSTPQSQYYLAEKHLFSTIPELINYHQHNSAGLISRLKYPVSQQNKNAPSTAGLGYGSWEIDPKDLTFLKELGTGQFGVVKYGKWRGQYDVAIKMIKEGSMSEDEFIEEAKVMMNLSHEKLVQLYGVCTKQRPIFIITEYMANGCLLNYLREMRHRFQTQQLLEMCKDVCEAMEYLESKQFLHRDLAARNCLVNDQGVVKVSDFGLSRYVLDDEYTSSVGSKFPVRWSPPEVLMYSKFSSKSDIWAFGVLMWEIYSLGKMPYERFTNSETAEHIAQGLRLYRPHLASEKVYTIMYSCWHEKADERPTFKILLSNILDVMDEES

The IC50 is the concentration that gives 50% inhibition. In the case of `C=CC(=O)N1CCC[C@H](Oc2nc(Nc3ncc(C)s3)cc3c2ccn3C)C1` [Example 158, (S)-1-(3-((1-methyl-6-((5-methylthiazol-2-yl)amino)-1H-pyrrolo[3,2-c]pyridin-4-yl)oxy)piperidin-1-yl)prop-2-en-1-one], the IC50 on ITK (setting [1]) was 20 to 100 nM; at BTK (setting [2]), ≤ 20 nM.

For `C=CC(=O)N1CC[C@@H](Oc2nc(Nc3ncc(C)s3)cc3c2ccn3C)C1` [Example 156, (R)-1-(3-((1-methyl-6-((5-methylthiazol-2-yl)amino)-1H-pyrrolo[3,2-c]pyridin-4-yl)oxy)pyrrolidin-1-yl)prop-2-en-1-one], the IC50 at ITK (setting [1]) and on BTK (setting [2]) was > 500 nM each time.

`C=CC(=O)N1C[C@H](F)[C@H](Oc2nc(Nc3cc[nH]n3)cc3c2ccn3CC(C)C)C1` [Example 195, 1-((3R,4S)-3-((6-((1H-pyrazol-3-yl)amino)-1-isobutyl-1H-pyrrolo[3,2-c]pyridin-4-yl)oxy)-4-fluoropyrrolidin-1-yl)prop-2-en-1-one]: the half-maximal inhibitory concentration (IC50) was 100 to 500 nM on ITK (setting [1]) and 20 to 100 nM at BTK (setting [2]).

Regarding `C=CC(=O)N1CC=C(c2nc(Nc3ncc[nH]3)cc3c2ccn3C)CC1` [Example 40, 1-(4-(6-((1H-imidazol-2-yl)amino)-1-methyl-1H-pyrrolo[3,2-c]pyridin-4-yl)-3,6-dihydropyridin-1(2H)-yl)prop-2-en-1-one], the results for the IC50 at ITK (setting [3]) and on BTK (setting [4]) were > 500 nM and 100 to 500 nM, respectively.

Turning to `C=CC(=O)N1CC[C@H](Oc2nc(Nc3ncc(C)s3)cc3c2ccn3[C@H](C)C(F)(F)F)C1` [Example 213, 1-((S)-3-((6-((5-methylthiazol-2-yl)amino)-1-((R)-1,1,1-trifluoropropan-2-yl)-1H-pyrrolo[3,2-c]pyridin-4-yl)oxy)pyrrolidin-1-yl)prop-2-en-1-one], the 50% inhibitory concentration (IC50) at ITK (setting [1]) and on BTK (setting [2]) was ≤ 20 nM in each case.

Regarding `C=CC(=O)N1C[C@@H](F)[C@H](Oc2nc(Nc3ncc(C)s3)cc3c2ccn3C)C1` [Example 157, 1-((3R,4R)-3-fluoro-4-((1-methyl-6-((5-methylthiazol-2-yl)amino)-1H-pyrrolo[3,2-c]pyridin-4-yl)oxy)pyrrolidin-1-yl)prop-2-en-1-one], the 50% inhibitory concentration (IC50) at ITK (setting [1]) and at BTK (setting [2]) was ≤ 20 nM each time.

`C=CC(=O)N1CCC=C(c2nc(Nc3ncc(C)s3)cc3c2ccn3C(C)C)CC1` [Example 26, 1-(4-(1-isopropyl-6-((5-methylthiazol-2-yl)amino)-1H-pyrrolo[3,2-c]pyridin-4-yl)-2,3,6,7-tetrahydro-1H-azepin-1-yl)prop-2-en-1-one]: the IC50 on ITK (setting [3]) and at BTK (setting [4]) was ≤ 20 nM each time.

In the case of `C=CC(=O)N1CCC[C@H](Oc2nc(Nc3ncc(C)s3)cc3c2ccn3CC2CCCC2)C1` [Example 169, (S)-1-(3-((1-(cyclopentylmethyl)-6-((5-methylthiazol-2-yl)amino)-1H-pyrrolo[3,2-c]pyridin-4-yl)oxy)piperidin-1-yl)prop-2-en-1-one], the results for the IC50 on ITK (setting [1]) and at BTK (setting [2]) were 20 to 100 nM and ≤ 20 nM, respectively.

Regarding `C=CC(=O)N1CC(C)(Oc2nc(Nc3ncc(C)s3)cc3c2ccn3CC(C)C)C1` [Example 119, 1-(3-((1-isobutyl-6-((5-methylthiazol-2-yl)amino)-1H-pyrrolo[3,2-c]pyridin-4-yl)oxy)-3-methylazetidin-1-yl)prop-2-en-1-one], the IC50 on ITK (setting [3]) and at BTK (setting [4]) was ≤ 20 nM each time.

As for `C=CC(=O)N1CC=C(c2nc(Nc3ncc(C)s3)cc3c2ccn3C(C)(C)C#N)CC1` [Example 22, 2-(4-(1-acryloyl-1,2,3,6-tetrahydropyridin-4-yl)-6-((5-methylthiazol-2-yl)amino)-1H-pyrrolo[3,2-c]pyridin-1-yl)-2-methylpropanenitrile], the IC50 at ITK (setting [3]) and at BTK (setting [4]) was ≤ 20 nM in each case.

`C=CC(=O)N1CC=C(c2nc(Nc3ncc(C)s3)cc3c2ccn3CCC(C)(C)C)CC1` [Example 18, 1-(4-(1-(3,3-dimethylbutyl)-6-((5-methylthiazol-2-yl)amino)-1H-pyrrolo[3,2-c]pyridin-4-yl)-3,6-dihydropyridin-1(2H)-yl)prop-2-en-1-one]: the IC50 at ITK (setting [3]) is ≤ 20 nM; on BTK (setting [4]), 20 to 100 nM.

As to `C=CC(=O)N1CC[C@H](Oc2nc(Nc3ncc(C)s3)cc3c2ccn3CCF)C1` [Example 188, (S)-1-(3-((1-(2-fluoroethyl)-6-((5-methylthiazol-2-yl)amino)-1H-pyrrolo[3,2-c]pyridin-4-yl)oxy)pyrrolidin-1-yl)prop-2-en-1-one], the IC50 at ITK (setting [1]) and on BTK (setting [2]) was ≤ 20 nM throughout.

In the case of `C=CC(=O)N1C[C@H](F)[C@H](Oc2nc(Nc3ncc(C)s3)cc3c2ccn3C(C)C)C1` [Example 83, 1-((3S,4R)-3-fluoro-4-((1-isopropyl-6-((5-methylthiazol-2-yl)amino)-1H-pyrrolo[3,2-c]pyridin-4-yl)oxy)pyrrolidin-1-yl)prop-2-en-1-one], the IC50 on ITK (setting [1]) and on BTK (setting [2]) was ≤ 20 nM throughout.

Consider `C=CC(=O)N1CC=C(c2nc(Nc3cc(C)ccn3)cc3c2ccn3C(C)C)CC1` [Example 49, 1-(4-(1-isopropyl-6-((4-methylpyridin-2-yl)amino)-1H-pyrrolo[3,2-c]pyridin-4-yl)-3,6-dihydropyridin-1(2H)-yl)prop-2-en-1-one], for which the IC50 was in the range of 100 to 500 nM at ITK (setting [1]), 20 to 100 nM on ITK (setting [3]), 100 to 500 nM at BTK (setting [2]) and 20 to 100 nM on BTK (setting [4]).

Take `C=CC(=O)Nc1cc(-c2nc(Nc3ncc(C)s3)cc3c2ccn3C)ccc1F` [Example 54, N-(2-fluoro-5-(1-methyl-6-((5-methylthiazol-2-yl)amino)-1H-pyrrolo[3,2-c]pyridin-4-yl)phenyl)acrylamide]: the values for the IC50 at ITK (setting [3]) and at BTK (setting [4]) were 20 to 100 nM and ≤ 20 nM, respectively.

`C=CC(=O)N1C[C@H](F)[C@H](Oc2nc(Nc3ncc(C)s3)cc3c2ccn3CCF)C1` [Example 189, 1-((3S,4R)-3-fluoro-4-((1-(2-fluoroethyl)-6-((5-methylthiazol-2-yl)amino)-1H-pyrrolo[3,2-c]pyridin-4-yl)oxy)pyrrolidin-1-yl)prop-2-en-1-one]: the concentration for half-maximal inhibition (IC50) at ITK (setting [1]) and at BTK (setting [2]) was ≤ 20 nM in each case.

As for `C=CC(=O)N1CC=C(c2nc(Nc3ncc(C)s3)cc3c2ccn3C2CCCC2)CC1` [Example 5, 1-(4-(1-cyclopentyl-6-((5-methylthiazol-2-yl)amino)-1H-pyrrolo[3,2-c]pyridin-4-yl)-3,6-dihydropyridin-1(2H)-yl)prop-2-en-1-one], the IC50 on ITK (setting [3]) and at BTK (setting [4]) was ≤ 20 nM in each case.

Consider `C=CC(=O)N1CC(Oc2nc(Nc3ncc(C)s3)cc3c2ccn3CC2CC2)C1` [Example 145, 1-(3-((1-(cyclopropylmethyl)-6-((5-methylthiazol-2-yl)amino)-1H-pyrrolo[3,2-c]pyridin-4-yl)oxy)azetidin-1-yl)prop-2-en-1-one], for which the half-maximal inhibitory concentration (IC50) on ITK (setting [1]) and at BTK (setting [2]) was ≤ 20 nM throughout.

For `C=CC(=O)N1CC=C(c2nc(Nc3ncc(C)s3)cc3c2ccn3C2CC2(F)F)CC1` (stereo not drawn) [Example 20, 1-(4-(1-(2,2-difluorocyclopropyl)-6-((5-methylthiazol-2-yl)amino)-1H-pyrrolo[3,2-c]pyridin-4-yl)-3,6-dihydropyridin-1(2H)-yl)prop-2-en-1-one], the 50% inhibitory concentration (IC50) on ITK (setting [3]) and on BTK (setting [4]) was ≤ 20 nM each time.

As to `C=CC(=O)N1CC[C@H](Oc2nc(Nc3nccc(OC)n3)cc3c2ccn3C(C)C)C1` [Example 183, (S)-1-(3-((1-isopropyl-6-((4-methoxypyrimidin-2-yl)amino)-1H-pyrrolo[3,2-c]pyridin-4-yl)oxy)pyrrolidin-1-yl)prop-2-en-1-one], the IC50 on ITK (setting [1]) and at BTK (setting [2]) was > 500 nM in each case.
